{"source": "patent US20050175688A1", "about": "(priority 2004, published 2005)", "key": {"[1]": {"test_system": "chronic pelvic pain/endometriosis", "test": "Potaba protocol study: oral Potaba in women with chronic pelvic pain/endometriosis", "type": "in vivo", "description": "The total number of women under clinical examination was 212.\nAll of those who volunteered for the therapy protocol met the criteria of 10 points or more on the self-test, that threshold defining a subject who was at risk for endometriosis.\nA pelvic pain assessment which was originated by the International Pelvic Pain Society© 1999 (IPPS) was also conducted. IPPS evaluated the volunteer subjects for the following information: pain, menses, bladder, bowel habits, gastro-intestinal/eating habits, health habits, coping mechanisms, a short form McGill questionnaire (psychological; level of depression assay), daily activities, personal history, surgical history, sexual history and physical history.\nIn addition to a careful review of the pre-test examinations of the prospective subjects, exclusion criteria were also established as a means of reducing unrelated influences into the test results.\nOnly one physician conducted the physical evaluation of each of the participants to ensure consistency throughout the study. In addition to repeated laboratory and thorough physical examinations, the examining physician personally discussed and recorded responses to questions about the presence or absence of side-effects and improvements in symptoms, if any. […] Although the subjects individual responses to questions regarding symptoms and particularly levels of pain experience throughout the test period inherently can include a subjective element, the questions were repetitiously and precisely posed to the subjects so as to prompt a consistent response minimally effected by the questioner's choice of words, tone, delivery, etc. The test subjects reported pelvic pain experience as a number selected between the levels of 1 to 10, with 1 being no pain experienced and 10 being the most severe level of pain."}, "Solubility in water": {"test": "Solubility in water", "type": "physicochemical"}, "[2]": {"details": "12 grams/day po, out of 25 participants"}}}
{"compound": "Nc1ccc(C(=O)O)cc1", "note": "[Potaba, aminobenzoate potassium]", "values": [{"measurement": "Discontinued Potaba protocol (reason): nausea, No. of Study Participants", "setting": "[1]; [2]", "value": 3}, {"measurement": "Discontinued Potaba protocol (reason): rash, No. of Study Participants", "setting": "[1]; [2]", "value": 2}, {"measurement": "incidence of drug interactions", "setting": "[1]; oral administration", "value": "low incidence of drug interactions"}, {"measurement": "toxicity / safety of oral administration (result in words)", "setting": "[1]; oral administration, potassium", "value": "non-toxic and safe"}, {"measurement": "solubility in water", "setting": "Solubility in water", "value": "highly soluble in water"}]}
